Laboratory results published in US8569342B2, “Diastereomers of 4-aryloxy-3-hydroxypiperidines” (Brentwood Equities, Ltd., priority 2003, dated 2013).
Like-named read-outs stand apart in the source and are kept apart here.

What was measured:
NE uptake = NE uptake (Homo sapiens, UniProt P23975); experiment: NE uptake binding assay; settings: for inhibition at 0.1 µM: 100 nM compound, read-out: % inhibition of control specific at 100 nM conc.
5-HT3 = 5-HT3 (Homo sapiens, UniProt P46098); experiment: 5-HT3 receptor binding assay; settings: for inhibition at 0.1 µM: 100 nM compound, read-out: % inhibition of control specific at 100 nM conc.
Chain of 5-HT3 (P46098 24-478): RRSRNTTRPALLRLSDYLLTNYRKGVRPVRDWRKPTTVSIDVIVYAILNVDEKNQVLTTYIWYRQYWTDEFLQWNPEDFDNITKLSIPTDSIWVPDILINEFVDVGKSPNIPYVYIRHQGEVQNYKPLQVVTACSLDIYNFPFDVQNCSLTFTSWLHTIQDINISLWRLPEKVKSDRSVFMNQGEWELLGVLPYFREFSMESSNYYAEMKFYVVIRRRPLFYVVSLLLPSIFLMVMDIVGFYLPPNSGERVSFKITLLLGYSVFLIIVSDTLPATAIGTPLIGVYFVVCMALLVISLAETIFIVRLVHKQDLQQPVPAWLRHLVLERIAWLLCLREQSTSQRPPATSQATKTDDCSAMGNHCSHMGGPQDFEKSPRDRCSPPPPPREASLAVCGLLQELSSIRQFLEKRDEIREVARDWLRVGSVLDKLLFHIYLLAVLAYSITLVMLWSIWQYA

human 5-HT2B receptor = human 5-HT2B receptor (Homo sapiens, UniProt P41595); experiment: 5-HT2B receptor binding assay; settings: for inhibition at 0.1 µM: 100 nM compound, 1.2 nM [3H]-LSD, 60 minutes at 22° C., CHO cells, read-out: % inhibition of control specific at 100 nM conc.
Chain of human 5-HT2B receptor (P41595 whole entry): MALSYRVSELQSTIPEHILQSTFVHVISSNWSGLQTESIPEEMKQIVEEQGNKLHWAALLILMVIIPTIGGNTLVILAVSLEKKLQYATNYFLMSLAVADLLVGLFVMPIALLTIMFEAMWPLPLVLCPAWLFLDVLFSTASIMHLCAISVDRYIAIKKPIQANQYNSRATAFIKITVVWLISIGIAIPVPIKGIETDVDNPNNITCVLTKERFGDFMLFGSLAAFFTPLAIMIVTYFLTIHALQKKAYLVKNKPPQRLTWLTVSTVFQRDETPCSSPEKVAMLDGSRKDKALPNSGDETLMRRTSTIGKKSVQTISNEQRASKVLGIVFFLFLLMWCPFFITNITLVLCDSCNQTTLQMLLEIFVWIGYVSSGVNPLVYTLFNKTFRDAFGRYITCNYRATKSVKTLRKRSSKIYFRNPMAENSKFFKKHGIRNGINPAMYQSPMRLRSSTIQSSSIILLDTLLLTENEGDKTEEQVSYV
Description: (§1) 5-HT receptor binding assays were performed according to the method well known in the art. See for example Mulerhorn et al. J. Biol. Chem. 269 (1994) 12954-12962, Bonhaus et al. (1995) et al. J. Biol. Chem. 269 (1994) 12954-12962 herein incorporated by reference in its entirety. See also U.S. Pat. Nos. 5,126,363; 5,688,807; 5,786,157; and 5,869,691 herein incorporated by reference in their entirety.
(§2) Briefly, CHO cells expressing human 5-HT receptor subtypes, or membranes prepared therefrom, were incubated with a specific radioactive ligand for 60 minutes at 22° C. (0.5 nM of [^3H]-8-OH-DPAT for 5-HT1A receptors, 1.2 nM of [^3H]-LSD for 5-HT2B receptors). Incubations were performed in the presence or absence of one of the following diastereomers: 10 μM 8-OH-DPAT; 100 nM (3S,4R)-4-(2,3-dimethylphenyl)-3-hydroxypiperidine; 100 nM (3R,4S)-4-(2,3-dimethylphenyl)-3-hydroxypiperidine; 100 nM (3R,4R)-4-(2,3-dimethylphenyl)-3-hydroxypiperidine; 100 nM (3S,4S)-4-(2,3-dimethylphenyl)-3-hydroxypiperidine. Following incubation the cells or membranes were washed recovered and the radioactivity content of the filter used to determine specific receptor binding and inhibition by the essential pure diastereomers.

human 5-HT1A receptor = target: T1, human 5-HT1A receptor (Homo sapiens, UniProt P08908); experiment: 5-HT1A receptor binding assay; settings: for inhibition at 0.1 µM: 100 nM compound, 0.5 nM [3H]-8-OH-DPAT, 60 minutes at 22° C., CHO cells, read-out: % inhibition of control specific at 100 nM conc.
T1 construct: expressed in transfected cells; host or cells: CHO cells
T1 sequence (P08908 1-422): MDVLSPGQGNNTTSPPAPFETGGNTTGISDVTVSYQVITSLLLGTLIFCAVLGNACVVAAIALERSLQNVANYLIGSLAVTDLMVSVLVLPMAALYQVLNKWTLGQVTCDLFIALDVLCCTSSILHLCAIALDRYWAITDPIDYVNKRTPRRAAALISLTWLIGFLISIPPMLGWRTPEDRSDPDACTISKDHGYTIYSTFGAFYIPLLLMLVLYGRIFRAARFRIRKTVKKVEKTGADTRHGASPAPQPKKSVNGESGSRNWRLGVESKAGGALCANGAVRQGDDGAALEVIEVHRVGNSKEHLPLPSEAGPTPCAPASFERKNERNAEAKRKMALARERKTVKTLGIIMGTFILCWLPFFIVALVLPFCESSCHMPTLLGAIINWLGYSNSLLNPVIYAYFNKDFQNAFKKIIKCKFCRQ
Description: as §1, §2

5-HT4C = 5-HT4C receptor binding assay; parameters: species or system human; settings: for % inhibition of control specific at 100 nM conc.: 100 nM compound
Description: as §1, §2

5-HT2c = 5-HT2c (Homo sapiens, UniProt P28335); experiment: 5-HT2c receptor binding assay; settings: for inhibition at 0.1 µM: 100 nM compound, read-out: % inhibition of control specific at 100 nM conc.
Chain of 5-HT2c (P28335 33-458): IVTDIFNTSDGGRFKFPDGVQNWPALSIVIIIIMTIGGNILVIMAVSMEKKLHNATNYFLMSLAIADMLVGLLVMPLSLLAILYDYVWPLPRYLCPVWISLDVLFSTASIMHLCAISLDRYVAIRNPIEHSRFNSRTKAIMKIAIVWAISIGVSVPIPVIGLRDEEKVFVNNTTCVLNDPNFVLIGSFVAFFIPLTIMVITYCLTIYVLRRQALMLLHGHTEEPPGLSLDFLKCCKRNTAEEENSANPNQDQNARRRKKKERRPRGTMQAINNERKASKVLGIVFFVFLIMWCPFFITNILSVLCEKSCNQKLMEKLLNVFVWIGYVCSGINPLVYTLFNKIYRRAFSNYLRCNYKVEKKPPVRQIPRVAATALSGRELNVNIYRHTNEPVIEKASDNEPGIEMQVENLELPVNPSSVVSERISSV

5-HT7 = target: T2, 5-HT7 (Homo sapiens, UniProt P34969); experiment: 5-HT7 receptor binding assay; settings: for inhibition at 0.1 µM: 100 nM compound, read-out: % inhibition of control specific at 100 nM conc.
T2 construct: expressed in transfected cells; host or cells: CHO cells
T2 sequence (P34969 whole entry): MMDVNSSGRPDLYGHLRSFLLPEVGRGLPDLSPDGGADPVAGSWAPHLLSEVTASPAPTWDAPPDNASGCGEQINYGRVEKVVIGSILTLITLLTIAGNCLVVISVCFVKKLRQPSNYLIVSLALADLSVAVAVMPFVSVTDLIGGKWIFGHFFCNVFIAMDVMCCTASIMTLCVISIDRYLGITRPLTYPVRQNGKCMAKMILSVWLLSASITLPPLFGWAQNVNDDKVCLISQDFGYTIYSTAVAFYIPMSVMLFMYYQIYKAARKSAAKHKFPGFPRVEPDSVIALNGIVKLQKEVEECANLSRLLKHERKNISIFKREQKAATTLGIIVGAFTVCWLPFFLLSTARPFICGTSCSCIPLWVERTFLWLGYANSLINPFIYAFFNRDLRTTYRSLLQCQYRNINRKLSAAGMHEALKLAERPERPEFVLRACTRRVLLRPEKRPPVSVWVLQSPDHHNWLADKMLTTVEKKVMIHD

beta-noradrenoceptors = settings: in vitro; Waldmeier; cited from earlier work
doparine receptors = settings: in vivo; Waldmeier; cited from earlier work
opiate receptors = settings: in vitro; Waldmeier; cited from earlier work
[1] = test system: 5-HT reuptake in the brain; settings: Delini-Stula et al.; cited from earlier work
5-HT1 receptors = settings: Waldmeier, cited from earlier work
[2] = test system: muscarinic acetylcholine receptors; settings: in vitro; Waldmeier; cited from earlier work
GABAA receptors = settings: in vitro; Waldmeier; cited from earlier work
[3] = test system: 5-HT uptake processes in the periphery (blood platelets); settings: Delini-Stula et al.; cited from earlier work
alpha1-noradrenoceptors = settings: in vitro; Waldmeier; cited from earlier work
5-HT2 receptors [4] = settings: in vivo; Waldmeier; cited from earlier work
5-HT2 receptors [5] = settings: Waldmeier, cited from earlier work
benzodiazepine receptors = settings: in vitro; Waldmeier; cited from earlier work
alpha2-noradrenoceptors = settings: in vitro; Waldmeier; cited from earlier work
histamine H1 receptors = settings: in vitro; Waldmeier; cited from earlier work

Chain of NE uptake (P23975 whole entry): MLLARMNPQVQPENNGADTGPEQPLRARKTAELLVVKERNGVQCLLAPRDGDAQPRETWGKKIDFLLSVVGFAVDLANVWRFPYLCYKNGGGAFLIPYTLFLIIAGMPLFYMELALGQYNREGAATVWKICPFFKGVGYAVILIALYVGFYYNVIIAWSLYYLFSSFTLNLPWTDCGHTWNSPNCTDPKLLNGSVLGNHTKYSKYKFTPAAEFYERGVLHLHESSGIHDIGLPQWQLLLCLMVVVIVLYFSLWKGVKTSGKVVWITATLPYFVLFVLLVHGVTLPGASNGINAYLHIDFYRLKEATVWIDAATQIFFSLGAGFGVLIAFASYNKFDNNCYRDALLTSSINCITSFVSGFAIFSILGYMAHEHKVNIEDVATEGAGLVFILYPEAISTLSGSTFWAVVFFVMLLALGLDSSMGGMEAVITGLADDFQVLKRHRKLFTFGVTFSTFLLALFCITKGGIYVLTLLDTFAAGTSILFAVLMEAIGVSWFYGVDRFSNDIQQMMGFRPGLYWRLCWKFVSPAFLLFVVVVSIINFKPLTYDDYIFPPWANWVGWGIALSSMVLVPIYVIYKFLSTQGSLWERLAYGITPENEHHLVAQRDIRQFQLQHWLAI

| Compound | inhibition at 0.1 µM (NE uptake) [%] | inhibition at 0.1 µM (5-HT3) [%] | inhibition at 0.1 µM (human 5-HT2B receptor) [%] | inhibition of binding to 5-HT1A receptors (in words) (human 5-HT1A receptor) | inhibition at 0.1 µM (human 5-HT1A receptor) [%] | % inhibition of control specific at 100 nM conc. (5-HT4C) [%] | inhibition at 0.1 µM (5-HT2c) [%] | inhibition of binding to 5-HT7 receptors (in words) (5-HT7) | inhibition at 0.1 µM (5-HT7) [%] | inhibition of binding to 5-HT2c receptors (in words) (5-HT2c) | inhibition of binding to Ne (Norepinephrine) uptake receptors (in words) (NE uptake) | further results |
| --- | --- | --- | --- | --- | --- | --- | --- | --- | --- | --- | --- | --- |
| Cc1cccc(O[C@@H]2CCNC[C@H]2O)c1C | -9 | 4 | 6 | inhibits binding | 16 | 0 | -11 | inhibits binding | 16 |  |  |  |
| Cc1cccc(O[C@H]2CCNC[C@H]2O)c1C | 3 | 6 | 48 | effective inhibitor of binding | 39 | 8 | 4 |  | 1 | effective inhibitor of binding |  | inhibition of binding to 5-HT2B receptors (in words) (human 5-HT2B receptor): effective inhibitor of binding |
| Cc1cccc(O[C@@H]2CCNC[C@@H]2O)c1C | 8 | 11 | 6 |  | 9 | 15 | -17 |  | 6 |  | inhibits binding | inhibition of binding to 5-HT3 receptors (in words) (5-HT3): inhibits binding; inhibition of binding to 5-HT4c receptors (in words) (5-HT4C): inhibits binding |
| Cc1cccc(O[C@H]2CCNC[C@@H]2O)c1C | 4 | 5 | 6 |  | -8 | 5 | 7 | inhibits binding | 22 | inhibits binding | inhibits binding |  |
| Cc1cccc(O[C@H]2CCNC[C@H]2O)c1C.Cc1cccc(O[C@H]2CCNC[C@H]2O)c1C.O=S(=O)(O)O (relative stereo) [ifoxetine, (+/−)-bis-[cis-3-hydroxy-4-(2,3-dimethyl-phenoxy)]-piperidine sulfate] |  |  |  |  |  |  |  |  |  |  |  | interaction with beta-noradrenoceptors (beta-noradrenoceptors): weak or no interactions; interaction with doparine receptors (doparine receptors): weak or no interactions; interaction with opiate receptors (opiate receptors): weak or no interactions; block of 5-HT reuptake in the brain [1]: specifically and selectively blocks; activity at 5-HT1 receptors (5-HT1 receptors; 10 μM of the racemate): minimal activity; interaction with 5-HT1 receptors (5-HT1 receptors; in vitro): weak or no interactions; interaction with muscarinic acetylcholine receptors [2]: weak or no interactions; interaction with GABAA receptors (GABAA receptors): weak or no interactions; effect on 5-HT uptake processes in the periphery (blood platelets) [3]: without affecting; interaction with alpha1-noradrenoceptors (alpha1-noradrenoceptors): weak or no interactions; interaction with 5-HT2 receptors (5-HT2 receptors [4]): weak or no interactions; activity at 5-HT2 receptors (5-HT2 receptors [5]; 10 μM of the racemate): minimal activity; interaction with 5-HT2 receptors (5-HT2 receptors [5]; in vitro): weak or no interactions; interaction with benzodiazepine receptors (benzodiazepine receptors): weak or no interactions; interaction with alpha2-noradrenoceptors (alpha2-noradrenoceptors): weak or no interactions; interaction with histamine H1 receptors (histamine H1 receptors): weak or no interactions |
